From ChEMBL document CHEMBL3132815, “Design, synthesis and activities of 4/5-acyl-2-aminoimidazolyl analogues of oroidin for biofilm inhibition” (Medchemcomm, 2013) come the findings set out here.

SMILES strings stand for the structures.

The subject of series [1] is Staphylococcus aureus. Briefly: Antibacterial activity against Staphylococcus aureus ATCC 35556 assessed as planktonic growth at 50 ug/ml. It counts as organism-based.
Series [2] concerns Pseudomonas aeruginosa. Briefly: Antibiofilm activity against Pseudomonas aeruginosa PAO1 assessed as inhibition of biofilm formation at 50 ug/ml. It counts as functional.
Series [3] relates to Staphylococcus aureus. Briefly: Antibacterial activity against methicillin-resistant Staphylococcus aureus assessed as planktonic growth at 50 ug/ml. The format is organism-based. The settings on record: in vitro.
For series [4], the system named is Staphylococcus aureus. Kind of series: Antibacterial activity against methicillin-resistant Staphylococcus aureus 1094 assessed as planktonic growth at 50 ug/ml. It counts as organism-based.
Series [5] has as its system Staphylococcus aureus. Briefly: Antibiofilm activity against methicillin-resistant Staphylococcus aureus assessed as inhibition of biofilm formation at 50 ug/ml. It counts as functional.
Series [6] relates to Staphylococcus aureus. Briefly: Antibiofilm activity against methicillin-resistant Staphylococcus aureus 1094 assessed as inhibition of biofilm formation at 50 ug/ml. It counts as functional.
For series [7], the system named is Staphylococcus epidermidis. Briefly: Antibacterial activity against Staphylococcus epidermidis GTC 18972 assessed as planktonic growth at 50 ug/ml. It counts as organism-based.
In series [8] the test system is Staphylococcus aureus. Kind of series: Antibiofilm activity against Staphylococcus aureus ATCC 35556 assessed as inhibition of biofilm formation at 50 ug/ml. The format is functional.
Series [9] deals with Staphylococcus epidermidis. Briefly: Antibiofilm activity against Staphylococcus epidermidis GTC 18972 assessed as inhibition of biofilm formation at 50 ug/ml. The format is functional.
For series [10], the system named is Staphylococcus epidermidis. Kind of series: Antibacterial activity against Staphylococcus epidermidis 1457 assessed as planktonic growth at 50 ug/ml. The format is organism-based.
Series [11] relates to Pseudomonas aeruginosa. Kind of series: Antibacterial activity against Pseudomonas aeruginosa PAO1 assessed as planktonic growth at 50 ug/ml. The format is organism-based.
In series [12] the test system is Staphylococcus epidermidis. Kind of series: Antibiofilm activity against Staphylococcus epidermidis 1457 assessed as inhibition of biofilm formation at 50 ug/ml. The format is functional.

For the compound `O=C(NCCC(O)c1cnc2ncccn12)c1ccc[nH]1` (configuration not stated), the Activity is listed as 3.3% in the series with Staphylococcus aureus [1]; 6.1% in the series on Staphylococcus aureus [3]; -7.9% in the series on Staphylococcus aureus [4]; 1% in series [7]; 0.7% in [10]; -19.1% in the series with Pseudomonas aeruginosa [11]. Also, the inhibition (as a rule, the change of the read-out against control, counted positive when it falls) at 50 µg/mL in the series on Pseudomonas aeruginosa [2] was 3.9%; with Staphylococcus aureus [5], -5.1%; in the series on Staphylococcus aureus [6] it was 26.8%; in the series on Staphylococcus aureus [8], -6.5%; in series [9], 18.1%; in series [12], 9.6%.
With `O=C(NCC(=O)c1cnc2ncccn12)c1ccc[nH]1`, the Activity is given as -4.75% with Staphylococcus aureus [1]; 3.76% in the series with Staphylococcus aureus [3]; 20.67% with Staphylococcus aureus [4]; 17.02% in series [7]; 11.5% in series [10]; 3.14% with Pseudomonas aeruginosa [11]. The inhibition at 50 µg/mL in the series with Pseudomonas aeruginosa [2] was 14.3%; in the series on Staphylococcus aureus [5], -119%; with Staphylococcus aureus [6], 2.15%; with Staphylococcus aureus [8] it was -5.94%; in series [9] it was -6.61%; in series [12] it was 7.6%.
Consider `O=C(NCCC(=O)c1cnc2ncccn12)c1cc(Br)c[nH]1`, for which the Activity in the series on Staphylococcus aureus [1] is 4.97%; with Staphylococcus aureus [3], -6.08%; in the series with Staphylococcus aureus [4], 5.81%; in [7], 1.02%; in series [10], -2.26%; in the series on Pseudomonas aeruginosa [11], -14.84%. Besides, the inhibition at 50 µg/mL is 17% with Pseudomonas aeruginosa [2]; -127% in the series with Staphylococcus aureus [5]; 22.5% in the series with Staphylococcus aureus [6]; -8.17% with Staphylococcus aureus [8]; -9.3% in series [9]; 2.71% in series [12].
As for `O=C(NCC(=O)c1cnc2ncccn12)c1cc(Br)c(Br)[nH]1`, the Activity with Staphylococcus aureus [1] is recorded as -4.3%; in the series on Staphylococcus aureus [3] it was 7.17%; in the series with Staphylococcus aureus [4] it was 18.43%; in series [7], 19.25%; in series [10], 13.8%; with Pseudomonas aeruginosa [11], -15.25%. The inhibition at 50 µg/mL in the series on Pseudomonas aeruginosa [2] was 20.8%; in the series with Staphylococcus aureus [5], -119%; with Staphylococcus aureus [6] it was -13.9%; in the series on Staphylococcus aureus [8], -5.8%; in series [9], -2.59%; in series [12], 6.17%.
As for `O=C(NCC(O)c1cnc2ncccn12)c1cc(Br)c[nH]1` (configuration not stated), the Activity is listed as 4.97% in the series with Staphylococcus aureus [1]; -6.08% with Staphylococcus aureus [3]; 5.81% with Staphylococcus aureus [4]; 1.02% in series [7]; -2.26% in series [10]; -14.84% in the series with Pseudomonas aeruginosa [11]. The inhibition at 50 µg/mL with Pseudomonas aeruginosa [2] was 17%; in the series with Staphylococcus aureus [5], -127%; in the series with Staphylococcus aureus [6] it was 22.5%; with Staphylococcus aureus [8] it was -8.17%; in series [9], -9.3%; in series [12], 2.71%.
Regarding `O=C(NCC(O)c1cnc2ncccn12)c1cc(Br)c(Br)[nH]1` (configuration not stated), the Activity in the series on Staphylococcus aureus [1] was -6.51%; in the series with Staphylococcus aureus [3] it was -1.91%; in the series on Staphylococcus aureus [4] it was 6.37%; in series [7] it was 15.9%; in series [10] it was 9.93%; in the series on Pseudomonas aeruginosa [11] it was -13.02%. For the same compound, the inhibition at 50 µg/mL in the series with Pseudomonas aeruginosa [2] was 8.66%; in the series with Staphylococcus aureus [5], -124%; in the series with Staphylococcus aureus [6] it was 0.13%; in the series on Staphylococcus aureus [8], -4.41%; in series [9], -9.35%; in [12] it was 4.48%.
